Results on 13 compounds are retold here after patent publication US6447748B1, “Benzamide compounds for cancer imaging and therapy” (Research Corporation Technologies, Inc., priority 1993, dated 2002).

Read-outs that look alike come from different tables or passages of the source.

What is called Ki is a measure of affinity in units of concentration, obtained from inhibition or displacement.

Data set [1] has as its target sigma sites labeled by 4-[125I]PEMP in guinea pig brain membranes. It counts as binding. To be noted: read-out: Ki against 4-[125I]PEMP. Here is the method: (§1) Intact adherent cells were washed (2×1 mL) with 10 mM phosphate buffer (pH=7.2). […] Each data point represent an average of three values. The cells were incubated at 37° C. for 1 hr. and subsequently washed with phosphate buffer (10 mM; pH 7.2) (3×1 mL). The cells were then dissolved in 0.2 N NaOH (1.0 mL) and the activity counted on a Beckman (DP 5500) Gamma Counter. A similar procedure was repeated with 2-[^125I]BP with MCF-7, MDA-MB 231 and T47D breast cancer cells.
(§2) The affinity of compounds for sites labeled by 4-[^125I]PEMP was determined by homologous and heterologous in vitro competitive binding assays in intact MCF-7 breast cancer cells and guinea pig brain membranes labeled by 4-[^125I]PEMP. The assays were prepared according to the procedure described in Example 14.

In data set [2] the test system is Sigma-1 sites, MCF-7 breast adenocarcinoma.
Data set [3] deals with MUSC (muscarinic receptors). Type of data set: binding. The note with it: read-out: Ki MUSC RAT BRAIN [3H]QNB.
Data set [4] concerns the target T1, Sigma-2 (Rattus norvegicus, UniProt Q5U3Y7).
T1 sequence (Q5U3Y7 1-176): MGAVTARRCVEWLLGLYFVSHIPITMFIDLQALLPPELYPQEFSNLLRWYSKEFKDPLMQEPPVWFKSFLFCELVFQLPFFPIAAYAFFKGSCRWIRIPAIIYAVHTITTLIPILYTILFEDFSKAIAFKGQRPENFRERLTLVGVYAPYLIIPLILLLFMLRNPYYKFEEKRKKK
Nature of the data set: Sigma-2 binding assay, rat liver membranes, [3H]DTG + dextrallorphan (Example 9).

The target in data set [5] is T2, Sigma-1 (Cavia porcellus, UniProt Q60492). Nature of the data set: Sigma-1 binding assay, guinea pig brain membranes, [3H]-(+)-pentazocine (Example 9).
Protocol: A plasma membrane-mitochondrial (P2) membrane fraction was prepared from frozen guinea pig brains (Pel-Freeze, Rogers, Ak.), minus cerebellum. The brain tissue was thawed slowly before homogenization. A crude P2 membrane fraction was also prepared from the livers of Sprague-Dawley rats (150-220 g, Taconic Farms). The animals were decapitated and their livers were minced and homogenized. The tissue homogenization was carried out at 4° C. in 10 mM tris-HCl/0.32 M sucrose, pH=7.4 using 10 motor-driven strokes in a Potter-Elvehjem Teflon glass homogenizer. The crude homogenate was centrifuged for 10 min at 1000 g and the crude nuclear (P1) pellet was discarded. Supernatants were centrifuged at 31000×g for 15 min to yield a plasma membrane-mitochondrial pellet (P2). This pellet was resuspended in 3 ml/g in 10 mM tris-HCl, pH 7.4 and used for binding studies. Protein concentrations were determined by the method of Lowry.
Filters were washed twice with ice-cold 10 mM tris-HCL. Prior to use, filters were soaked in 0.5% polyethyleneimine for about 30 min at 25° C.
(§4) When the assay was terminated, the membranes were filtered and the filtrate washed twice as above. The radioactivity was counted in Ecoscint (National Diagnostics, Manville, N.J.) after an overnight extraction of counts.
(§5) Ki values were calculated from the IC50 values using Cheng-Prusoff equation.
Another data set addresses T3, DOPAMINE D-2 (Rattus norvegicus, UniProt P61169).
T3 construct: from tissue
The data set can be described thus: Dopamine D-2 binding, rat brain, [3H]-(−)-sulpiride. To be noted: Table 2 of Example 9.

For a further data set, the target named is PCP. Nature of the data set: PCP binding, rat brain, [3H]TCP. The note with it: Table 2 of Example 9.
Data set [6] has as its target T4, sigma sites labeled by 4-[125I]BP in MCF-7 breast cancer cells (Homo sapiens, UniProt Q5BJF2).
T4 construct: Intact adherent cells were washed (2×1 mL) with 10 mM phosphate buffer; endogenous in cells; host or cells: intact adherent MCF-7 breast cancer cells
The data set can be described thus: Homologous and heterologous competition for 4-[125I]BP binding in intact MCF-7 cells. The note with it: 37° C. for 1 hr., unit printed in b378 only, not in the table.

Data set [7] concerns MCF-7 breast cancer cells. Set-up: species or system human. The note with it: read-out: Kd, saturable binding. The text has this: The cells were adherent and split weekly in a 1:20 ratio using trypsin/EDTA (GIBCO).
In data set [8] the test system is sites labeled by 4-[125I]PEMP in MCF-7 breast tumor cells. The procedure:
as §1, §2

Data set [9] deals with T1, Sigma-2. Nature of the data set: Sigma-2 binding assay, rat liver membranes, [3H]DTG + dextrallorphan (Example 8). To be noted: read-out: Ki Sigma-2 Rat Liver; 3 nM [3H]DTG, 1 micromolar dextrallorphan.
Protocol: (§6) A crude P2 membrane fraction was also prepared from the livers of rat Sprague-Dawley rats (150-220 g, Taconic Farms) liver. The animals were decapitated and their livers were minced and homogenized. The tissue homogenization was carried out at 4° C. in ml/g tissue weight of 10 mM Tris-HCl/0.32 M sucrose, pH=7.4 using 10 motor-driven strokes in a Potter-Elvehjem Teflon glass homogenizer. The crude homogenate was centrifuged for 10 min at 1000 g and the crude nuclear (P1) pellet was discarded. Supernatants were centrifuged at 31000 g for 15 min to yield a plasma membrane-mitochondrial pellet (P2). This pellet was resuspended in 3 ml/g in 10 mM tris-HCl, pH 7.4 and used for binding studies. Protein concentrations were determined by the method of Lowry.
(§7) Filters were washed twice with ice-cold buffer. Prior to use, filters were soaked in 0.5% polyethyleneimine for about 30 min at 25° C.
as §4, §5
Data set [10] deals with T2, Sigma-1. The data set can be described thus: Sigma-1 binding assay, guinea pig brain membranes, [3H]-(+)-pentazocine (Example 8). To be noted: read-out: Ki Sigma-1 Guinea Pig Brain; 3 nM [3H]-(+)-pentazocine, 60 min at 37° C.
Protocol: as §6, §7, §4, §5
In data set [11] the test system is A2058 human malignant melanoma cells. Nature of the data set: In vitro competitive binding of nonradioactive IPAB against [125I]PAB in A2058 cells. The note with it: 37° C. for 5 hr., read-out: Ki, nonradioactive IPAB inhibiting binding of radioactive IPAB.
Protocol: These cells were grown in DMEM2 medium (Dulbecco's modification of Eagle's medium, EMEM) supplemented with 10% fetal bovine serum and 0.03% L-glutamine.
A2058 cells, grown as described above, were harvested with calcium and magnesium free phosphate buffer (0.1 M) containing 0.02% EDTA. Cells were washed twice with ice-cold RPMI 1640 medium (Gibco) without glutamine and resuspended in the same medium. Carrier-free [^125I]PAB (0.1 ml) was added to eight aliquots of 0.1 ml test A2058 cells (1.5×10^6 cells in suspension). To observe competitive binding by non-radioactive IPAB, varying concentrations of non-radioactive IPAB were added in a volume of 0.1 ml. Cells were incubated at 37° C. for 5 hr. after addition of radioactive and nonradioactive IPAB.
After incubation, cells were collected by centrifugation for 5 min and washed twice with RPMI 1640 medium. The radioactivity bound to cells was counted using a Packard Autogamma 5650 scintillation counter.
Data were analyzed with an INPLOT® iterative, non-linear least square curve fitting program.
For data set [12], the target named is T5, Sigma-2, rat C6 glioma cells (Rattus norvegicus, UniProt Q5U3Y7).
T5 sequence (Q5U3Y7 1-176): T1 sequence (Q5U3Y7 1-176)
The data set can be described thus: Sigma-2 binding assay, C6 glioma cell homogenates, [3H]DTG + dextrallorphan (Example 8). The note with it: read-out: Ki Sigma-2 C6 Glioma Cells; 3 nM [3H]DTG, 1 micromolar dextrallorphan.
Protocol: as §7, §4, §5

Data set [13] deals with Sigma-1 sites, T47D breast ductal carcinoma.
Data set [14] concerns human melanoma xenograft tumors (A2058). Nature of the data set: Scintigraphic imaging of nude mice bearing human melanoma xenografts. It counts as in vivo, Balb/c nu/nu mice. The procedure:
(§3) A2058 cells, derived from a brain metastasis of human malignant melanoma (Todaro et al. 1980 Proc. Natl. Acad. Sci. USA 77: 5258) were obtained from the National Institutes of Health. A human lung adenocarcinoma cell line, NCI-838, was obtained from the National Cancer Institute. These cells were grown in DMEM2 medium (Dulbecco's modification of Eagle's medium, […]) supplemented with 10% fetal bovine serum and 0.03% L-glutamine.
Balb/c nu/nu mice (17-22 g) bearing human melanoma or non-small cell lung carcinoma xenograft tumors were injected intravenously with 0.2 ml of saline solution containing [^131I]PAB or [^131I]DAB (150-200 μCi). The animals were anesthetized with ketamine containing rompun before the imaging studies. The images were obtained using a scintigraphic camera with a pin-hole collimator at 6 and 24 hr. post injection.

Data set [15] relates to human adenocarcinoma xenograft (NCI-838). Nature of the data set: Scintigraphic imaging of nude mouse bearing human lung adenocarcinoma xenograft. It counts as in vivo, Balb/c nu/nu mice. To be noted: 24 and 30 hrs. post-injection. The procedure:
as §3
Balb/c nu/nu mice (17-22 g) bearing human melanoma or non-small cell lung carcinoma xenograft tumors were injected intravenously with 0.2 ml of saline solution containing [^131I]PAB or [^131I]DAB (150-200 μCi). The animals were anesthetized with ketamine containing rompun before the imaging studies. […]
A general note: In xenograft studies the graft and the host belong to different species.

The mark [16] stands for this setting: read-out: Ki SIGMA-2 RAT LIVER [3H]DTG + DEX, Table 2 of Example 9.
Setting [17] is: read-out: Ki SIGMA-1 GUINEA PIG BRAIN [3H]-(+)-PENT, Table 2 of Example 9, 120 min at 25° C.

T4 sequence (Q5BJF2 whole entry): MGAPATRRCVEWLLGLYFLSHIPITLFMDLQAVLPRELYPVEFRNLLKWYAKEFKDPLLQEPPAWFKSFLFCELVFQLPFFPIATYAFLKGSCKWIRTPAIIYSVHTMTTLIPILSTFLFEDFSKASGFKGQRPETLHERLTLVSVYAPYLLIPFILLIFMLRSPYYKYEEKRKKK
T2 sequence (Q60492 whole entry): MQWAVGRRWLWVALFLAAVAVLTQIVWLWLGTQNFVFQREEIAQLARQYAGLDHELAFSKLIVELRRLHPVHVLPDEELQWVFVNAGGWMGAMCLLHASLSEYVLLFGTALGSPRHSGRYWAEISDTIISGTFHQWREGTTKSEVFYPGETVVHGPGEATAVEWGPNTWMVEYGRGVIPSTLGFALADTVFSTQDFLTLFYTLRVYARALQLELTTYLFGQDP
T3 sequence (P61169 whole entry): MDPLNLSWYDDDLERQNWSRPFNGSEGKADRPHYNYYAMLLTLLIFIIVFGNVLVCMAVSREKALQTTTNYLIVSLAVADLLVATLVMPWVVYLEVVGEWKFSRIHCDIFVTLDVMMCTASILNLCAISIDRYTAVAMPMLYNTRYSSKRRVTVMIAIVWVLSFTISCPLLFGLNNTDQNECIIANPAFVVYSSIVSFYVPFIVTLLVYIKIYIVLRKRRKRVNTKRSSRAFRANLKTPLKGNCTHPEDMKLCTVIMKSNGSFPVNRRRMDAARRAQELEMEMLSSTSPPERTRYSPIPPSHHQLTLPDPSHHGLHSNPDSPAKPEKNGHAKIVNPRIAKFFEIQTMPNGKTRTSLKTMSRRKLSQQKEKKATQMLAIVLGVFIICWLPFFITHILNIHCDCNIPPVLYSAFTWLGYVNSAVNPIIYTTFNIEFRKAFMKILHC

For `CC(C)=CCN1CCC2(C)c3cc(O)ccc3CC1C2C` (single isomer, unassigned; (+)) [(+)-Pentazocine], the inhibition constant Ki in [1] was 35.9 nM. In addition, the “specific binding to sigma-1 sites” value in data set [2] is on record as “little or no specific binding”.
On to `O=C(NC1CCN(Cc2ccccc2)CC1)c1ccccc1I` [2-IBP, (N-Benzylpiperidin-4-yl)-2-iodobenzamide], for which the Ki in data set [3] is above 100000 nM; on Sigma-2 [4] (setting [16]) it was 29.6 ± 0.49 nM; on Sigma-1 [5] (setting [17]) it was 1.64 ± 0.15 nM; on DOPAMINE D-2, 63.4 ± 10.8 nM; at PCP, above 100000 nM.
For `O=C(NC1CCN(Cc2ccccc2)CC1)c1cccc(I)c1` [3-IBP, (N-Benzylpiperidin-4-yl)-3-iodobenzamide], the Ki in data set [3] was above 100000 nM; on Sigma-2 [4] (setting [16]), 84.6 ± 2.5 nM; at Sigma-1 [5] (setting [17]) it was 3.02 ± 1.06 nM; on DOPAMINE D-2, 24.8 ± 0.02 nM; at PCP it was above 100000 nM.
For `O=C(NC1CCN(Cc2ccccc2)CC1)c1ccc(I)cc1` [4-IBP, (N-Benzylpiperidin-4-yl)-4-iodobenzamide], the inhibition constant (Ki) in [3] is above 100000 nM; in data set [6] it was 4.8 ± 2 nM; at Sigma-2 [4] (setting [16]) it was 25.2 ± 1.28 nM; on DOPAMINE D-2, 382 ± 39 nM; on PCP, above 100000 nM.
Take `CN(CCc1ccc(I)cc1)CCN1CCCCC1` [4-IPEMP, N-[(4-I-iodophenyl)ethyl]-N-methyl-2-(1-piperidinyl)-ethylamine]: the figures for the Ki on Sigma-2 [4] and on Sigma-1 [5] were 52.6 nM and 7.02 nM, respectively.
Regarding `O=C(NC1CCN(Cc2ccccc2)CC1)c1ccc(I)cc1` [4-[^125I]BP, ^125I-(N-Benzylpiperidin-4-yl)-4-iodobenzamide], the Kd in [7] amounted to 26 nM.
Turning to `CCCN1CCC[C@H](c2cccc(O)c2)C1` [(+)-PPP], the Ki in data set [6] is above 1000 nM.
Regarding `CN(CCc1ccc(Cl)c(Cl)c1)CCN1CCCC1` [BD1008], in data set [1], the Ki is 5.6 nM. Further, in data set [8], the “inhibition of specific binding of 4-[125I]PEMP” value is recorded as “high affinity, concentration-dependent inhibition of specific binding”.
In the case of `CN(CCc1ccc(Br)cc1)CCN1CCCCC1` [Br-PEMP, N-[2-(4-Bromophenyl)ethyl]-N-methyl-2-(1-piperidinyl)ethylamine], the results for the Ki on Sigma-2 [4] and at Sigma-1 [5] were 51.8 nM and 6.27 nM, respectively.
As for `O=C(NCCN1CCCCC1)c1ccc(I)cc1` [IPAB, (2-Piperidinylaminoethyl)4-iodobenzamide], the Ki worked out at 24 nM at Sigma-2 [9], 0.89 nM at Sigma-1 [10], 6.8 nM in data set [11] and 130 nM in data set [12].
In the case of `O=C(CCCN1CCC2(CC1)C(=O)NCN2c1ccccc1)c1ccc(F)cc1` [Spiperone], in data set [6], affinity was put at a Ki of 247 ± 37 nM.
In the case of `CC(C)=CCN1CC[C@]2(C)c3cc(O)ccc3C[C@H]1[C@H]2C` [[^3H] (+)-pentazocine], the figures for the Kd in data set [13] (read-out: Kd1 Sigma-1) and in [13] (read-out: Kd4 Sigma-1) were 6.62 nM and 261 nM, respectively. For the same compound, the “specific binding to sigma-1 sites” value in data set [2] was “No specific binding”.
On to “^131I(2-Piperidinylaminoethyl)4-iodobenzamide [[^131I]PAB]”, for which the “detection in the tumor, scintigraphic image” value in [14] (6 and 24 hrs. post injection) is “detected only within the tumor”. The “uptake in the liver, scintigraphic image” value in data set [14] (6 and 24 hrs. post-administration) was “Little or no”. Also, the “visualization of implanted tumor, scintigraphic image” value in [15] was “easily visualized the implanted tumor”.
